From PubChem BioAssay (NCI) come the findings set out here.

Holding throughout (assay): NCI tumour cell line growth inhibition, 48 h
Assay [1] concerns RXF 393 renal.
The test system of assay [2] is MDA-N.
In assay [3] the test system is OVCAR-3 ovarian.
In assay [4] the test system is KM12 colon.
For assay [5], the system named is HT29 colon.
Assay [6] deals with HCT-116 colon.
The subject of assay [7] is SW-620 colon.
Assay [8] deals with LOX IMVI melanoma.
Assay [9] relates to TK-10 renal.
In assay [10] the test system is NCI-H522 lung.
Assay [11] concerns 786-0 renal.
Assay [12] concerns NCI-H226 lung.
Assay [13] relates to SNB-19 CNS.
Assay [14] deals with M14 melanoma.
The subject of assay [15] is UACC-62 melanoma.
The subject of assay [16] is DU-145 prostate.
For assay [17], the system named is MDA-MB-231 breast.
Assay [18] has as its system UO-31 renal.
In assay [19] the test system is HOP-62 NSCLC.

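Exposure lasted 48 hours, with cells grown in 96-well plates and compounds tested at five concentrations. TGI marks complete inhibition of growth.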

On to `C=C(C)[C@H]1C[C@@H]2O[C@@](O)(/C(C)=C\C(=O)/C=C(/C)C[C@H]3OC(=O)[C@@]24O[C@H]34)[C@@H]1O`, for which the TGI in assay [1] is 97.6 µM; in assay [2] it was over 100 µM; in assay [3] it was over 100 µM; in assay [4], over 100 µM; in assay [5] it was over 100 µM; in assay [6] it was over 100 µM. The TGI in assay [7], in [8], in assay [9], in assay [10], in assay [11] and in assay [12] was over 100 µM each time. Moreover, the TGI in assay [13], in [14], in assay [15], in [16] and in assay [17] was over 100 µM in each case.
On to `CC(C)(C)C1(O)C=C(O)C(=O)N1NC(=O)c1ccccc1Nc1ccccc1` (configuration not stated), for which the TGI was over 100 µM in assay [1]; over 100 µM in assay [2]; 31.9 µM in assay [3]; over 100 µM in assay [4]; over 100 µM in [5]; over 100 µM in [6]. The TGI is over 100 µM in assay [7]; over 100 µM in [8]; over 100 µM in assay [9]; 81.2 µM in assay [10]; over 100 µM in [11]; over 100 µM in assay [12]. Moreover, the TGI in assay [13] is over 100 µM; in assay [14], over 100 µM; in assay [15] it was 63 µM; in assay [16] it was over 100 µM; in assay [18], over 100 µM; in [17] it was over 100 µM.
As to `CC(C)(O)CO/N=C1\C(c2c(O)[nH]c3ccccc23)=Nc2ccccc21`, the TGI is 2.48 µM in assay [1]; over 45 µM in assay [2]; 5.95 µM in [3]; 4.71 µM in [4]; over 35 µM in assay [5]; over 100 µM in [6]. Further, the TGI is over 86.4 µM in assay [7]; over 24.3 µM in [8]; 8.68 µM in [9]; over 47.8 µM in [10]; over 44.4 µM in assay [11]; over 52.6 µM in assay [13]. The TGI in assay [14] is over 43.3 µM; in assay [15] it was 2.66 µM; in [16] it was over 22.2 µM; in [18], 5.09 µM; in assay [17] it was over 75.7 µM; in [19], 16.4 µM.
Consider `C/C=N\n1c(C)c(C#N)c(C#N)c1N`, for which the TGI in assay [1], in assay [2], in assay [3], in assay [4], in assay [5] and in [6] was over 100 µM throughout. The TGI in assay [7], in assay [8], in assay [9], in assay [10], in assay [11] and in [12] was over 100 µM in each case. For the same compound, the TGI in [13], in assay [14], in assay [15], in [16], in [18] and in assay [17] was over 100 µM each time. In assay [19], the TGI was over 100 µM.
On to `CCC1c2[nH]c3ccccc3c2C[C@H]2C(=O)N3CCC[C@H]3C(=O)N12` (some centres not stated), for which the TGI in assay [1], in assay [2], in assay [3], in assay [4], in assay [5] and in assay [6] was over 100 µM throughout. The TGI in assay [7], in assay [8], in [9], in assay [10], in assay [11] and in [12] was over 100 µM throughout. Moreover, the TGI in assay [13], in [14], in [15], in assay [16], in assay [18] and in assay [17] was over 100 µM in each case. This compound displayed a TGI in assay [19] of over 100 µM.
Take `COCCN(CCOC)C(=O)COc1c2cc(C(C)(C)C)cc1Cc1cc(C(C)(C)C)cc(c1OCC(=O)N(CCOC)CCOC)Cc1cc(C(C)(C)C)cc(c1OCC(=O)N(CCOC)CCOC)Cc1cc(C(C)(C)C)cc(c1OCC(=O)N(CCOC)CCOC)Cc1cc(C(C)(C)C)cc(c1OCC(=O)N(CCOC)CCOC)C2`: the TGI in [1] was 4.03 µM; in [2], 12.1 µM; in assay [3] it was 10.2 µM; in [4], 11.1 µM; in assay [5], 8.13 µM; in assay [6], 3.78 µM. Further, the TGI is 11.9 µM in assay [7]; 8.92 µM in assay [8]; 15 µM in assay [9]; 6.9 µM in assay [10]; 12.2 µM in [11]; 11 µM in assay [12]. Besides, the TGI was found to be 16.4 µM in [13]; 13 µM in assay [14]; 3.53 µM in assay [15]; 11.1 µM in assay [16]; 5.06 µM in [17]; 5.04 µM in assay [19].
In the case of `COC(=O)c1cc(C)ccc1C1CN=NC12Cc1cccc(C)c1C2=O` (configuration not stated), the TGI was over 100 µM in [1]; over 100 µM in [2]; over 100 µM in assay [3]; 79.7 µM in assay [4]; over 100 µM in assay [5]; 70.5 µM in assay [6]. Besides, the TGI was over 100 µM in assay [7]; 53 µM in [8]; over 100 µM in assay [9]; 89.6 µM in [10]; over 100 µM in assay [11]; over 100 µM in assay [12]. The TGI in [13] is over 100 µM; in assay [14], 38.9 µM; in assay [16], over 100 µM; in assay [18], over 100 µM; in assay [17], 75.5 µM; in [19], over 100 µM.
